Test results as given in ChEMBL document CHEMBL1139567, “Synthesis and biological evaluation of sulfonamidooxazoles and beta-keto sulfones: selective inhibitors of 11beta-hydroxysteroid dehydrogenase type I” (Bioorg Med Chem Lett, 2005).

Experiments:
[1] = biological target: 11-beta-hydroxysteroid dehydrogenase 1 (Homo sapiens, UniProt P28845); assay: Inhibitory concentration against human 11-beta-hydroxysteroid dehydrogenase 1
[2] = biological target: T1, 11-beta-hydroxysteroid dehydrogenase type 2 (Homo sapiens, UniProt P80365); assay: Inhibitory concentration against human 11-beta-hydroxysteroid dehydrogenase 2
T1 sequence (P80365 whole entry): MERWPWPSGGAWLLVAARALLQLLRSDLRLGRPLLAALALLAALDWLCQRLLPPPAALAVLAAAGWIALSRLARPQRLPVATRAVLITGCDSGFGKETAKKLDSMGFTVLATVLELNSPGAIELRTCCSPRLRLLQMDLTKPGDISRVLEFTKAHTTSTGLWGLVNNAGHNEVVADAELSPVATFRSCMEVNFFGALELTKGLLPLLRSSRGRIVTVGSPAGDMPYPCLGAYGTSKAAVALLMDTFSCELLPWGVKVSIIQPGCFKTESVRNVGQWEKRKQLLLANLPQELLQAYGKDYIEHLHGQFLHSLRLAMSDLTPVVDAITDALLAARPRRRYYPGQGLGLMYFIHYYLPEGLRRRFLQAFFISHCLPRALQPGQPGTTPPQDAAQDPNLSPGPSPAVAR

11-beta-hydroxysteroid dehydrogenase 1, sequence (P28845 whole entry): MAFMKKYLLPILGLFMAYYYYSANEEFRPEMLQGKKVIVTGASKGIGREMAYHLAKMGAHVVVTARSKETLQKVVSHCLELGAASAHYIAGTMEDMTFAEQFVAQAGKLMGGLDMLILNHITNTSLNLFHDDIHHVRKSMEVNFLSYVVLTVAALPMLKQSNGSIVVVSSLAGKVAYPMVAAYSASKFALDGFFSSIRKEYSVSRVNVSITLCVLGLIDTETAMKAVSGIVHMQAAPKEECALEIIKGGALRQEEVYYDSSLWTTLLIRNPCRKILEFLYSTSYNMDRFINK

Row | Structure (SMILES) | IC50 [1] [µM] | IC50 [2] [µM]
1 | COC(=O)Cc1c(Cl)cccc1S(=O)(=O)Nc1nc(C)co1 | > 100 | –
2 | Cc1coc(NS(=O)(=O)c2cccc(Cl)c2C)n1 | 58.7 | –
3 | Cc1c(Cl)cccc1S(=O)(=O)Nc1nc(-c2ccc(C#N)cc2)co1 | 48 | > 200
4 | O=S(=O)(Nc1nc(-c2ccc(-c3ccccc3)cc2)co1)c1ccccc1 | 2.3 | > 200
5 | CCN(CC)C(=O)Cc1csc(NS(=O)(=O)c2cccc(Cl)c2C)n1 | 1.5 | > 200
6 | Cc1coc(NS(=O)(=O)c2cccc(Cl)c2CC(=O)O)n1 | > 100 | –
7 | Cc1c(Cl)cccc1S(=O)(=O)Nc1nc(-c2ccccc2)co1 | 17.3 | > 200
8 | CC(=O)N(C)c1ccc(S(=O)(=O)Nc2nc(C)c(C)o2)cc1 | 100 | > 200
9 | O=C(CS(=O)(=O)c1ccccc1)c1ccc(C(F)(F)F)cc1 | 0.19 | > 200
10 | O=S(=O)(Nc1nc(-c2ccc(C(F)(F)F)cc2)co1)c1ccccc1 | 9 | > 200
11 | O=S(=O)(Nc1nc(-c2ccccc2)co1)c1ccccc1 | 23 | > 200
